Measurements from US20140248361A1, “HERBAL EXTRACT COMPOSITION AND A PROCESS THEREOF” (PRASAN SOLUTIONS (INDIA) PVT LTD, priority 2012, published 2014).

Experiments:
[1] = Oil stability index (Rancimat) of fish oil; details: 200 ppm; for Induction Time: in h
Protocol: 4.0 g of fish oil is weighed into the reaction vessel. […] The temperature of the block is maintained at 60° C., 70° C. and 80° C., respectively.

[2] = Peroxide value of fish oil at 10° C.
Protocol: The shelf life is calculated using Rancimat shelf life calculator. The shelf life of oil is studied by carrying out chemical analysis, which include studying peroxide value (represents extent of primary oxidation), Para-anisidine value (represents extent of secondary oxidation) and totox value (reflects total oxidation of oil). […] […] The untreated oil is the control sample without any antioxidant.

[3] = Oil stability index (Rancimat) of almond oil; details: for Induction Time: in h
Protocol: (§1) The oil stability index is determined using the Metrohm's Rancimat (Metrohm 743 Rancimat).
4.0 g of almond oil is weighed into the reaction vessel. The reaction vessel filled with oil is placed in a heating block. The temperature of the block is maintained at 100° C., 120° C. and 140° C., respectively. The oil is heated at the said temperatures, followed by passing air at a flow rate of 20 L/h. […] These compounds are conveyed by the air flow into measurement vessel containing distilled water where conductivity is being checked continuously by sensor.
The above experiment is repeated by adding 200 ppm of BHA (sample-B), 200 ppm of BHT (sample-B1), 500 ppm of alpha tocopherol (sample-B2) and PRESOL at 200 ppm, 500 ppm and 1000 ppm, respectively to almond oil. From the above experiment, oxidative stability index of untreated oil (control) and treated oil is calculated and the below table illustrates the induction time and the obtained oxidative stability.

[4] = Oil stability index (Rancimat) of apricot oil; details: for Induction Time at 200 ppm: in h
Protocol: As used herein, ‘Oil Stability Index (OSI)’ is an American Oil Chemists Society (AOCS) approved method that determines the relative resistance of fat and oil samples to oxidation, which is defined by the following equation—
as §1
4.0 g of apricot oil is weighed into the reaction vessel. The reaction vessel filled with oil is placed in a heating block. The temperature of the block is maintained at 100° C., 120° C. and 140° C., respectively. The oil is heated at the said temperatures, followed by passing air at a flow rate of 20 L/h. Flowing of air through the oil produces peroxides during primary oxidation and organic acids having low molecular weight, aldehydes and ketones with typical rancid odor during the secondary oxidation phase. These compounds are conveyed by the air flow into measurement vessel containing distilled water where conductivity is being checked continuously by sensor.
The above experiment is repeated by adding 200 ppm of BHA (sample-B), 200 ppm of BHT (sample-B1), 500 ppm of alpha tocopherol (sample-B2) and PRESOL at 200 ppm, 500 ppm and 1000 ppm, respectively to apricot oil.

## Cc1c(C)c2c(c(C)c1O)CC[C@@](C)(CCC[C@H](C)CCC[C@H](C)CCCC(C)C)O2 [Sample B2, alpha tocopherol]
[1]; 60° C.
  Oxidative Stability Index (OSI): 2.81
  Induction Time: 27.68
[1]; 70° C.
  Oxidative Stability Index (OSI): 2.76
  Induction Time: 13.74
[1]; 80° C.
  Oxidative Stability Index (OSI): 2.76
  Induction Time: 6.78
[2]; 200 ppm
  days after which peroxide value crosses the threshold limit of 8 meq/kg: 21 days
[2]; day 0, 200 ppm
  Peroxide value: 1.74
[2]; day 3, 200 ppm
  Peroxide value: 2.13
[2]; day 6, 200 ppm
  Peroxide value: 3.33
[2]; day 9, 200 ppm
  Peroxide value: 4.71
[2]; day 12, 200 ppm
  Peroxide value: 5.41
[2]; day 15, 200 ppm
  Peroxide value: 6.82
[2]; day 18, 200 ppm
  Peroxide value: 7.84
[2]; day 21, 200 ppm
  Peroxide value: 9.02
[2]; day 24, 200 ppm
  Peroxide value: 10.32
[2]; day 27, 200 ppm
  Peroxide value: 12.02
[2]; day 30, 200 ppm
  Peroxide value: 13.01
[2]; day 33, 200 ppm
  Peroxide value: 15.44
[2]; day 36, 200 ppm
  Peroxide value: 17.16
[2]; day 39, 200 ppm
  Peroxide value: 18.94
[2]; day 42, 200 ppm
  Peroxide value: 20.86
[2]; day 45, 200 ppm
  Peroxide value: 25.09
[2]; day 48, 200 ppm
  Peroxide value: 28.71
[2]; day 51, 200 ppm
  Peroxide value: 33.89
[2]; day 54, 200 ppm
  Peroxide value: 39.01
[2]; day 57, 200 ppm
  Peroxide value: 44.14
[2]; day 60, 200 ppm
  Peroxide value: 49.22
[2]; day 63, 200 ppm
  Peroxide value: 50.06
[2]; day 66, 200 ppm
  Peroxide value: 51.22
[2]; day 69, 200 ppm
  Peroxide value: 50.85
[2]; day 72, 200 ppm
  Peroxide value: 50.13
[2]; day 75, 200 ppm
  Peroxide value: 49.72
[3]; 100° C., 500 ppm
  Oxidative Stability Index (OSI): 1.11
  Induction Time: 24.51
[3]; 120° C., 500 ppm
  Oxidative Stability Index (OSI): 1.13
  Induction Time: 5.73
[3]; 140° C., 500 ppm
  Oxidative Stability Index (OSI): 1.04
  Induction Time: 1.43
[4]; 100° C., 500 ppm
  Oxidative Stability Index (OSI): 0.82
  Induction Time at 200 ppm: 22.06
[4]; 120° C., 500 ppm
  Oxidative Stability Index (OSI): 0.86
  Induction Time at 200 ppm: 5.06
[4]; 140° C., 500 ppm
  Oxidative Stability Index (OSI): 0.89
  Induction Time at 200 ppm: 1.32

## Cc1cc(C(C)(C)C)c(O)c(C(C)(C)C)c1 [Sample B1, butylated hydroxyl toluene]
[3]; 100° C., 200 ppm
  Induction Time: 24.98
[3]; 120° C., 200 ppm
  Induction Time: 5.89
[3]; 140° C., 200 ppm
  Induction Time: 1.48
[4]; 100° C., 200 ppm
  Induction Time at 200 ppm: 26.96
[4]; 120° C., 200 ppm
  Induction Time at 200 ppm: 5.93
[4]; 140° C., 200 ppm
  Induction Time at 200 ppm: 1.49
